# Test results as given in US11759462B2, “Spirocyclic compounds as tryptophan hydroxylase inhibitors” (priority 2013, dated 2023).
# Target: T1, Recombinant human TPH1 (MBP tagged) (Homo sapiens, UniProt P17752)
# T1 construct: cloning full length human TPH1 cDNA in to a bacterial pMAL-c5E expression vector; made in house; host or cells: E. coli BL21 (DE3)
# T1 sequence (P17752 1-444): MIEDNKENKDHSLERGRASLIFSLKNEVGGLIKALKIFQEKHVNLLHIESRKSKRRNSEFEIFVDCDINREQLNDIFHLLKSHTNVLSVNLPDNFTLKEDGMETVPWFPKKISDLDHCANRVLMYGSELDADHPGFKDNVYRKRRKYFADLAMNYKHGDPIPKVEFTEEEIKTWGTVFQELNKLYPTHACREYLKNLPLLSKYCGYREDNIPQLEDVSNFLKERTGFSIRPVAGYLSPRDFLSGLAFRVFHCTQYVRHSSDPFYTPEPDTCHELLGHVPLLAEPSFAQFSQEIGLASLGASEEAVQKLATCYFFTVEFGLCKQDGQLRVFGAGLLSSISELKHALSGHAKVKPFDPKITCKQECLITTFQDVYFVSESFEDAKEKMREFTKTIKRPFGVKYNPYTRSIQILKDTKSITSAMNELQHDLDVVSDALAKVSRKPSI
# Experiment: TPH1 in vitro inhibition assay (kinetic fluorescence)
# Assay type: biochemical
# Conditions: TPH1 Range (TPH1 inhibition IC50)
# Method in brief: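 Final mix: 15 nM MBP-TPH1, 30 μM Trp, 36 μM 6-methyltetrahydropterin, 25 μM ferrous ammonium sulfate, 50 mM MES pH 7.1, 1% DMSO, room temperature.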
row,SMILES,IC50 [nM]
1,"CS(=O)(=O)c1ccc(-c2cc(Cl)ccc2[C@@H](Oc2cc(N3CCC4(CC3)CN[C@H](C(=O)O)C4)nc(N)n2)C(F)(F)F)cc1 [Example 34ad, (S)-8-(2-amino-6-((R)-1-(5-chloro-4′-(methylsulfonyl)-[1,1′-biphenyl]-2-yl)-2,2,2-trifluoroethoxy)pyrimidin-4-yl)-2,8-diazaspiro[4.5]decane-3-carboxylic acid]",300 to 3000

# Same assay, conditions: read-out: TPH1 Range (TPH1 inhibition IC50)
row,SMILES,IC50 [nM]
1,"Nc1nc(O[C@H](c2ccc(Cl)cc2-c2cccc(C(=O)N3CCCC3)c2)C(F)(F)F)cc(N2CCC3(CC2)CN[C@H](C(=O)O)C3)n1 [Example 34ca, (S)-8-(2-amino-6-((R)-1-(5-chloro-3′-(pyrrolidine-1-carbonyl)-[1,1′-biphenyl]-2-yl)-2,2,2-trifluoroethoxy)pyrimidin-4-yl)-2,8-diazaspiro[4.5]decane-3-carboxylic acid]",50 to 300
2,"COc1ncccc1-c1ccc([C@@H](Oc2cc(N3CCC4(CC3)CN[C@H](C(=O)O)C4)nc(C)n2)C(F)(F)F)c(-n2ccc(C)n2)c1 [Example 29k, (S)-8-(2-methyl-6-((R)-2,2,2-trifluoro-1-(4-(2-methoxypyridin-3-yl)-2-(3-methyl-1H-pyrazol-1-yl)phenyl)ethoxy)pyrimidin-4-yl)-2,8-diazaspiro[4.5]decane-3-carboxylic acid]",50 to 300
3,"CCS(=O)(=O)c1cccc(-c2cc(Cl)ccc2[C@@H](Oc2cc(N3CCC4(CC3)CN[C@H](C(=O)O)C4)nc(N)n2)C(F)(F)F)c1 [Example 34j, (S)-8-(2-amino-6-((R)-1-(5-chloro-3′-(ethylsulfonyl)-[1,1′-biphenyl]-2-yl)-2,2,2-trifluoroethoxy)pyrimidin-4-yl)-2,8-diazaspiro[4.5]decane-3-carboxylic acid]",50 to 300
4,"COc1cc(C)cc(-c2ccc([C@@H](Oc3cc(N4CCC5(CC4)CN[C@H](C(=O)O)C5)nc(N)n3)C(F)(F)F)cc2)c1 [Example 55o, (S)-8-(2-amino-6-((R)-2,2,2-trifluoro-1-(3′-methoxy-5′-methyl-[1,1′-biphenyl]-4-yl)ethoxy)pyrimidin-4-yl)-2,8-diazaspiro[4.5]decane-3-carboxylic acid]",50 to 300
5,"Cc1ccn(-c2cc(-c3cc(C)c(Cl)c(C)c3)ccc2[C@@H](Oc2cc(N3CCC4(CC3)CN[C@H](C(=O)O)C4)nc(N)n2)C(F)(F)F)n1 [Example 1bh, (S)-8-(2-amino-6-((R)-1-(4′-chloro-3′,5′-dimethyl-3-(3-methyl-1H-pyrazol-1-yl)-[1,1′-biphenyl]-4-yl)-2,2,2-trifluoroethoxy)pyrimidin-4-yl)-2,8-diazaspiro[4.5]decane-3-carboxylic acid]",< 50
6,"CC(C)c1ccn(-c2cc(Cl)ccc2[C@@H](Oc2cc(N3CCC4(CC3)CN[C@H](C(=O)O)C4)nc(N)n2)C(F)(F)F)n1 [Example 10q, (S)-8-(2-amino-6-((R)-1-(4-chloro-2-(3-isopropyl-1H-pyrazol-1-yl)phenyl)-2,2,2-trifluoroethoxy)pyrimidin-4-yl)-2,8-diazaspiro[4.5]decane-3-carboxylic acid]",< 50
7,"Nc1nc(O[C@H](c2ccc(Cl)cc2-c2ccc(Cl)c(F)c2)C(F)(F)F)cc(N2CCC3(CC2)CN[C@H](C(=O)O)C3)n1 [Example 34af, (S)-8-(2-amino-6-((R)-1-(4′,5-dichloro-3′-fluoro-[1,1′-biphenyl]-2-yl)-2,2,2-trifluoroethoxy)pyrimidin-4-yl)-2,8-diazaspiro[4.5]decane-3-carboxylic acid]",< 50
8,"Cc1ccc(-c2cc(Cl)ccc2[C@@H](Oc2cc(N3CCC4(CC3)CN[C@H](C(=O)O)C4)nc(N)n2)C(F)(F)F)cc1C [Example 34ay, (S)-8-(2-amino-6-((R)-1-(5-chloro-3′,4′-dimethyl-[1,1′-biphenyl]-2-yl)-2,2,2-trifluoroethoxy)pyrimidin-4-yl)-2,8-diazaspiro[4.5]decane-3-carboxylic acid]",50 to 300
